In US8969363B2, “Heterocyclic compounds and uses thereof” (Infinity Pharmaceuticals, Inc., priority 2011, dated 2015):
Where two headings read alike, the source gives them in different places.

Columns and labels:
Balb/c splenic B cells = assay: B cell activation and proliferation assay (Alamar Blue); assay type: cell-based; details: Mus musculus
Method: The ability of one or more subject compounds to inhibit B cell activation and proliferation is determined according to standard procedures known in the art. For example, an in vitro cellular proliferation assay is established that measures the metabolic activity of live cells. The assay is performed in a 96 well microtiter plate using Alamar Blue reduction. Balb/c splenic B cells are purified over a Ficoll-Paque™ PLUS gradient followed by magnetic cell separation using a MACS B cell Isolation Kit (Miletenyi). Cells are plated in 90 μl at 50,000 cells/well in B Cell Media (RPMI+10% FBS+Penn/Strep+50 μM bME+5 mM HEPES). A compound provided herein is diluted in B Cell Media and added in a 10 μl volume. Plates are incubated for 30 min at 37° C. and 5% CO2 (0.2% DMSO final concentration). A 50 μl B cell stimulation cocktail is then added containing either 10 μg/ml LPS or 5 μg/ml F(ab′)2 Donkey anti-mouse […] plus 2 ng/ml recombinant mouse IL4 in B Cell Media. Plates are incubated for 72 hours at 37° C. and 5% CO2. A volume of 15 μL of Alamar Blue reagent is added to each well and plates are incubated for 5 hours at 37° C. and 5% CO2. Alamar Blue fluoresce is read at 560Ex/590Em, and IC50 or EC50 values are calculated using GraphPad Prism 5.

PI3Kβ = assay: PI3 Kinase HTRF assay, PI3Kβ; assay type: biochemical, human; details: 10 μM PIP2, 10 μM ATP, read-out: PI3K β IC50
Chain of PI3Kβ (Q8BTI9 whole entry, the tested form may be a part): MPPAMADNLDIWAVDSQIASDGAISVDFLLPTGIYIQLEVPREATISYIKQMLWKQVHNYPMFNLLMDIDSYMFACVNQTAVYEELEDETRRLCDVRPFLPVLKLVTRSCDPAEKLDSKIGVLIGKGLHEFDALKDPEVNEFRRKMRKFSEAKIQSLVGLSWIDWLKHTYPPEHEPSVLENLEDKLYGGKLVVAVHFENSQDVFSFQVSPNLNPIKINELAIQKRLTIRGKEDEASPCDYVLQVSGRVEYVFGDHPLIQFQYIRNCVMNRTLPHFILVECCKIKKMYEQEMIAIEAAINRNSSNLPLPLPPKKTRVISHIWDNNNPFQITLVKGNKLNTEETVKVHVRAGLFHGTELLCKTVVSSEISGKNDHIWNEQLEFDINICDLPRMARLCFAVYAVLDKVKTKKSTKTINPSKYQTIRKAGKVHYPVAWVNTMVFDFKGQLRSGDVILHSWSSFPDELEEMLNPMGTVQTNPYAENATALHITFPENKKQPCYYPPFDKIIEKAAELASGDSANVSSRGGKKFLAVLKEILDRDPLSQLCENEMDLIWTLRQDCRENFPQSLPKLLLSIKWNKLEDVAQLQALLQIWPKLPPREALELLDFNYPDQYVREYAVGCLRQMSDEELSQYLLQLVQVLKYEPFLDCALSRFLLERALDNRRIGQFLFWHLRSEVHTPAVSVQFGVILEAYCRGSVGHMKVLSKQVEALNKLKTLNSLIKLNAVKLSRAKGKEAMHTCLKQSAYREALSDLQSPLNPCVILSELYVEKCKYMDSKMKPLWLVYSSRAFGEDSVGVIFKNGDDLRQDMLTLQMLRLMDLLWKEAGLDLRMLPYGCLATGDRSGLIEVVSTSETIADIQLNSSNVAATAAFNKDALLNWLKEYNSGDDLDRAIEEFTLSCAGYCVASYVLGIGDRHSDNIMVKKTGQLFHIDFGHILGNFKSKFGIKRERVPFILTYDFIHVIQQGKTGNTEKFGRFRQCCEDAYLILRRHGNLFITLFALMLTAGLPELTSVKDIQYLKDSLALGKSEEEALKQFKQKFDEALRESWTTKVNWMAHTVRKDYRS
From the text: A PI3-Kinase HTRF® assay kit (cat No. 33-016) purchased from Millipore Corporation was used to screen compounds provided herein. This assay used specific, high affinity binding of the GRP1 pleckstrin homology (PH) domain to PIP3, the product of a Class 1A or 1B PI3 Kinase acting on its physiological substrate PIP2. During the detection phase of the assay, a complex was generated between the GST-tagged PH domain and biotinylated short chain PIP3. The biotinylated PIP3 and the GST-tagged PH domain recruited fluorophores (Streptavidin-Allophycocyanin and Europium-labeled anti-GST respectively) to form the fluorescence resonance energy transfer (FRET) architecture, generating a stable time-resolved FRET signal. The FRET complex was disrupted in a competitive manner by non-biotinylated PIP3, a product formed in the PI3 Kinase assay.
PI3 Kinase α, β, γ and δ activity was assayed using the PI3 Kinase HTRF® assay kit (catalogue No. 33-016) purchased from Millipore Corporation. […] Purified recombinant PI3K enzyme was used to catalyze the phosphorylation of phosphatidylinositol 4,5-bisphosphate (PIP2 at 10 μM) to phosphatidylinositol 3,4,5-trisphosphate (PIP3) in the presence of 10 μM ATP. The assay was carried out in 384-well format and detected using a Perkin Elmer EnVision Xcite Multilabel Reader. Emission ratios were converted into percent inhibitions and imported into GraphPad Prism software. […] IC50 values were determined using a nonlinear regression model available in GraphPad Prism 5. […]

[1] = 'Greater than 10 μM' and 'Greater than 1 μM to 10 μM'

SMILES | IC50 (PI3Kβ; [1]) [µM] | EC50 (Balb/c splenic B cells; 'Less than 100 nM') [µM] | also measured
C[C@H](Nc1ncnc2cccnc12)c1cc2ccc(F)c(Cl)c2c(=O)n1-c1ccccc1 [Compound I-16] | – | < 0.1 | –
C[C@H](Nc1ncnc2cccnc12)c1cc2cccc(Cl)c2c(=O)n1-c1cccc(F)c1 [Compound I-20] | – | < 0.1 | –
C[C@H](Nc1ncnc2cccnc12)c1cc2cccc(Cl)c2c(=O)n1C1CC1 [Compound I-23] | – | < 0.1 | IC50 (PI3Kβ; 'Less than 100 nM'): < 0.1 µM
C[C@H](Nc1ncnc2cccnc12)c1cc2cccc(Cl)c2c(=O)n1CCN1CCCC1 [Compound I-33] | – | < 0.1 | –
COc1ncc(-c2cccc3cc([C@H](C)Nc4nc(OC)nc5cccnc45)n(-c4ccccc4)c(=O)c23)cn1 [Compound I-72] | > 10 | – | –
COc1ncc(-c2cccc3cc([C@H](C)Nc4nc(O)nc5cccnc45)n(-c4ccccc4)c(=O)c23)cn1 [Compound I-77] | > 10 | – | –
COc1ncc(-c2cccc3cc([C@H](C)Nc4nc(N)nc5cccnc45)n(-c4cccc(F)c4)c(=O)c23)cn1 [Compound I-78] | > 10 | < 0.1 | –
C[C@H](Nc1nc(N)nc2cccnc12)c1cc2cccc(-c3cnc4[nH]ccc4c3)c2c(=O)n1-c1ccccc1 [Compound I-83] | – | < 0.1 | –
C[C@H](Nc1nc(N)nc2cccnc12)c1cc2cccc(Cl)c2c(=O)n1-c1ccccc1 [Compound I-92] | – | – | IC50 (PI3Kβ; 'Less than 100 nM'): < 0.1 µM
CNc1nc(N[C@@H](C)c2cc3cccc(NC)c3c(=O)n2-c2ccccc2)c2ncccc2n1 [Compound I-95] | > 10 | – | EC50 (Balb/c splenic B cells; 1 μM to 100 nM): 0.1 to 1 µM
CNc1nc(N[C@@H](C)c2cc3cccc(-c4cnc(OC)nc4)c3c(=O)n2-c2ccccc2)c2ncccc2n1 [Compound I-97] | > 10 | < 0.1 | –
CNc1nc(N[C@@H](C)c2cc3cccc(-c4cnc(C)nc4)c3c(=O)n2-c2ccccc2)c2ncccc2n1 [Compound I-98] | > 10 | – | EC50 (Balb/c splenic B cells; 1 μM to 100 nM): 0.1 to 1 µM
CNc1cccc2cc([C@H](C)Nc3nc(N)nc4cccnc34)n(-c3ccccc3)c(=O)c12 [Compound I-101] | > 10 | < 0.1 | –
C[C@H](Nc1cc(Cl)nn2ccnc12)c1cc2cccc(-c3cnn(C)c3)c2c(=O)n1-c1cccc(F)c1 [II-16] | > 10 | – | –
C[C@H](Nc1ccnc2ccnn12)c1cc2scc(-c3cnn(C)c3)c2c(=O)n1-c1ccccc1 [II-21] | > 10 | – | –
C[C@H](Nc1ccnn2ccnc12)c1cc2scc(-c3cnn(C)c3)c2c(=O)n1-c1ccccc1 [II-23] | > 10 | – | –
COc1ncc(-c2cccc3cc([C@H](C)Nc4ccnc5ccnn45)n(-c4ccccc4)c(=O)c23)cn1 [II-47] | > 10 | – | –
C[C@H](Nc1nc(O)nc2cccnc12)c1cc2cccc(C(F)(F)F)c2c(=O)n1-c1cccc(F)c1 [III-47] | > 10 | – | –
C[C@H](Nc1nc(O)nc2[nH]cnc12)c1cc2cccc(C(F)(F)F)c2c(=O)n1-c1cccc(F)c1 [III-48] | > 10 | – | –
C[C@H](Nc1nccc2nccn12)c1cc2cccc(Cl)c2c(=O)n1-c1ccccc1 [IV-4] | > 10 | – | –
C[C@H](Nc1ncnc2cnccc12)c1cc2cccc(Cl)c2c(=O)n1-c1ccccc1 [IV-5] | > 10 | – | –
C[C@H](Nc1ccn2nccc2n1)c1cc2cccc(Cl)c2c(=O)n1-c1ccccc1 [IV-6] | > 10 | – | –
C[C@H](NCc1cccnc1N)c1cc2cccc(Cl)c2c(=O)n1-c1ccccc1 [IV-8] | > 10 | – | –
C[C@H](Nc1ncc(C(F)(F)F)c(N)n1)c1cc2cccc(Cl)c2c(CCN2CCOCC2)n1 [IV-10] | > 10 | – | –
C[C@H](Nc1cc(Cl)ncc1C(N)=O)c1cc2cccc(Cl)c2c(=O)n1-c1ccccc1 [IV-21] | > 10 | – | –
C[C@H](Nc1cc(Cl)ncc1C#N)c1cc2cccc(Cl)c2c(=O)n1-c1ccccc1 [IV-23] | > 10 | – | –
C[C@H](Nc1cc(N)ncc1C(N)=O)c1cc2cccc(Cl)c2c(=O)n1-c1ccccc1 [IV-24] | – | – | IC50 (PI3Kβ; 'Less than 100 nM'): < 0.1 µM
CCOC(=O)c1cnc(N[C@@H](C)c2cc3cccc(-c4ccnc(OC)c4)c3c(=O)n2-c2ccccc2)nc1N [IV-25] | > 10 | – | –
C[C@@H](c1cc2cccc(Cl)c2c(=O)n1-c1ccccc1)n1c(=O)[nH]c2cnc(N)nc21 [IV-26] | > 10 | – | –
C[C@H](Nc1nc(Cl)ns1)c1cc2cccc(Cl)c2c(=O)n1-c1ccccc1 [IV-27] | > 10 | – | –

Continued, in another order:

IC50 (PI3Kβ; [1]) [µM] | SMILES | EC50 (Balb/c splenic B cells; 'Less than 100 nM') [µM] | also measured
> 10 | C[C@H](Nc1nc(Cl)nc2cccnc12)c1cc2cccc(-c3cnn(C)c3)c2c(=O)n1-c1ccccc1 [Compound I-35] | – | –
> 10 | C[C@H](Nc1nc(Cl)nc2cccnc12)c1cc2cccc(-c3cnn(C)c3)c2c(=O)n1-c1cccc(F)c1 [Compound I-37] | – | –
> 10 | C[C@H](Nc1nc(Cl)nc2cccnc12)c1cc2cccc(-c3cnn(C)c3)c2c(=O)n1C1CC1 [Compound I-39] | – | –
1 to 10 | C[C@H](Nc1nc(N)nc2cccnc12)c1cc2cccc(-c3cnn(C)c3)c2c(=O)n1C1CC1 [Compound I-40] | < 0.1 | –
> 10 | Cc1ncc(-c2cccc3cc([C@H](C)Nc4ncnc5cccnc45)n(-c4ccccc4)c(=O)c23)cn1 [Compound I-41] | < 0.1 | –
> 10 | COc1ncc(-c2cccc3cc([C@H](C)Nc4ncnc5cccnc45)n(-c4ccccc4)c(=O)c23)cn1 [Compound I-42] | < 0.1 | –
> 10 | COc1cncc(-c2cccc3cc([C@H](C)Nc4ncnc5cccnc45)n(-c4ccccc4)c(=O)c23)c1 [Compound I-45] | – | –
> 10 | COc1ncc(-c2cccc3cc([C@H](C)Nc4nc(N)nc5cccnc45)n(-c4ccccc4)c(=O)c23)cn1 [Compound I-57] | < 0.1 | –
1 to 10 | COc1cncc(-c2cccc3cc([C@H](C)Nc4nc(N)nc5cccnc45)n(-c4ccccc4)c(=O)c23)c1 [Compound I-58] | < 0.1 | –
> 10 | Cc1ncc(-c2cccc3cc([C@H](C)Nc4nc(N)nc5cccnc45)n(-c4ccccc4)c(=O)c23)cn1 [Compound I-59] | < 0.1 | –
> 10 | C[C@H](Nc1ncnc2cccnc12)c1cc2cccc(C(=O)O)c2c(=O)n1-c1ccccc1 [Compound I-62] | – | –
1 to 10 | C[C@H](Nc1ncnc2cccnc12)c1cc2cccc(-c3cnc(N)nc3)c2c(=O)n1-c1ccccc1 [Compound I-63] | < 0.1 | –
1 to 10 | Cc1ccnc2cc(C(C)Nc3ncnc4cccnc34)n(-c3ccccc3)c(=O)c12 (centres unmarked) [Compound I-65] | – | –
> 10 | COc1nc(N[C@@H](C)c2cc3cccc(Cl)c3c(=O)n2-c2ccccc2)c2ncccc2n1 [Compound I-71] | – | –
1 to 10 | Cc1cncc(-c2cccc3cc([C@H](C)Nc4nc(N)nc5cccnc45)n(-c4ccccc4)c(=O)c23)c1 [Compound I-75] | < 0.1 | –
1 to 10 | Cc1cc(-c2cccc3cc([C@H](C)Nc4ncnc5cccnc45)n(-c4ccccc4)c(=O)c23)ccn1 [Compound I-76] | < 0.1 | –
1 to 10 | Cc1cc(-c2cccc3cc([C@H](C)Nc4nc(N)nc5cccnc45)n(-c4ccccc4)c(=O)c23)ccn1 [Compound I-81] | < 0.1 | –
1 to 10 | C[C@H](Nc1nc(N)nc2cccnc12)c1cc2cccc(-c3cnc4ccccc4c3)c2c(=O)n1-c1ccccc1 [Compound I-82] | < 0.1 | –
1 to 10 | Cc1cccc2cc([C@H](C)Nc3nc(N)nc4cccnc34)n(-c3cccc(F)c3)c(=O)c12 [Compound I-85] | < 0.1 | –
1 to 10 | Cc1cc(-c2cccc3nc([C@H](C)Nc4nc(N)nc5cccnc45)n(-c4ccccc4)c(=O)c23)ccn1 [Compound I-88] | < 0.1 | –
1 to 10 | COc1ccc(CNc2nc(N[C@@H](C)c3cc4cccc(-c5cnc(OC)nc5)c4c(=O)n3-c3ccccc3)c3ncccc3n2)cc1 [Compound I-93] | – | –
1 to 10 | Cc1ncc(-c2cccc3cc([C@H](C)Nc4nc(N)nc5cccnc45)n(-c4ccccc4)c(=O)c23)s1 [Compound I-94] | – | –
1 to 10 | C[C@H](Nc1ncnc2ccnn12)c1cc2cccc(C(F)(F)F)c2c(=O)n1-c1ccccc1 [III-21] | – | –
1 to 10 | C[C@H](Nc1nc(Cl)nc2scnc12)c1cc2cccc(C(F)(F)F)c2c(=O)n1-c1ccccc1 [III-24] | – | –
1 to 10 | C[C@H](Nc1nc(N)ncc1C(F)(F)F)c1cc2cccc(C(F)(F)F)c2c(=O)n1-c1ccccc1 [III-32] | – | –
